According to patent US20040067998A1, “Antifungal and/or antiparasitic pharmaceutical composition and novel indole derivatives as active principle of such a composition” (priority 2003, published 2004):
Converted amounts (≈) assume the structure as drawn. “And” between values parts separate entries of the source, which are not always exact repeats. Identical values can stand only once.

What follows are molecules tested on Aspergillus fumigatus (strain n°AF 980003) (assay: Antifungal activity on a clinical strain of Aspergillus fumigatus (Alamar Blue microplate test)). Settings: Aspergillus fumigatus; strain AF980003; Alamar Blue; read-out: CMI or CI80 Aspergillus fumigatus (AF980003).
Format: cell-based

SMILES | MIC [µM]
Fc1ccc(Cn2ccc3cc(-c4nnn[nH]4)ccc32)cc1 [Cpsé 2, 1-(4-Fluorobenzyl)-5-(1H-tetrazol-5-yl)-1H-indole] | > 100

Same assay, conditions: Aspergillus fumigatus; strain AF980003; read-out: CMI or CI80 Aspergillus fumigatus (AF980003)

SMILES | MIC [µM]
CCC(C)n1ncn(-c2ccc(N3CCN(c4ccc(OCC5COC(Cn6cncn6)(c6ccc(Cl)cc6Cl)O5)cc4)CC3)cc2)c1=O (stereo not shown) [Itraconazole] | 0.71 (≈ 0.501 µg/mL)

Same assay, conditions: strain AF980003

SMILES | CMI or CI80 Aspergillus fumigatus (AF980003)
CCn1c(C(c2ccc(F)cc2)n2ccnc2)c(C)c2ccccc21.O=[N+]([O-])O (stereo not shown) [31n] | 16 ± 3 μM and 6 ± 1 μg/mL
CCC(c1cn(Cc2ccc(Cl)cc2)c2ccccc12)n1ccnc1.O=[N+]([O-])O (stereo not shown) [64n] | 57 ± 5 μM and 23.53 μg/mL
CC(c1cn(Cc2ccc(F)cc2)c2ccccc12)n1ccnc1.O=C(O)/C=C/C(=O)O (stereo not shown) [67f] | 64 ± 2 μM and 28 ± 1 μg/mL
CC(c1cn(Cc2ccc(Cl)cc2Cl)c2ccccc12)n1ccnc1.O=C(O)/C=C/C(=O)O (stereo not shown) [68f] | 65 ± 3 μM and 31 ± 1 μg/mL
CC(c1cn(Cc2ccc(F)cc2F)c2ccccc12)n1ccnc1.O=[N+]([O-])O (stereo not shown) [69n] | 64 ± 5 μM and 21.59 μg/mL
Cc1c(C(C)n2ccnc2)c2ccccc2n1Cc1ccc(Cl)cc1Cl.O=[N+]([O-])O (stereo not shown) [71n] | 74 ± 3 μM and 28.44 μg/mL
CCC(C)n1ncn(-c2ccc(N3CCN(c4ccc(OCC5COC(Cn6cncn6)(c6ccc(Cl)cc6Cl)O5)cc4)CC3)cc2)c1=O (stereo not shown) [Itraconazole] | 0.5 µg/mL
Brc1ccc(C(Cn2ccc3ccccc32)n2ccnc2)cc1 (stereo not shown) [compound 84] | 68 ± 3 μM and 29 ± 1 μg/mL

Same assay, conditions: strain AF980003; Alamar Blue

SMILES | CMI or CI80 Aspergillus fumigatus (AF980003)
CCN1CCc2cccc(C(c3cccc(Cl)c3)n3ccnc3)c21 (racemic) [compound 48] | 58 ± 4 μM and 26 ± 2 μg/ml
CC(C)(C)c1ccc(Cn2cc(Cn3ccnc3)c3ccccc32)cc1.O=C(O)/C=C/C(=O)O [7f] | 70 ± 3 μM and 32.17 ± 3 μg/ml
Fc1ccc(Cn2ccc3c(Cn4ccnc4)cccc32)cc1 [compound 17] | 72 ± 3 μM and 21.99 ± 2 μg/ml

Same assay, conditions: strain AF980003; Alamar Blue; read-out: CMI or CI80 Aspergillus fumigatus (AF980003)

SMILES | MIC [µM]
Fc1ccc(Cn2ccc3ccc(Cn4ccnc4)cc32)cc1.O=[N+]([O-])O [19n] | >100

Same assay, conditions: strain AF980003; read-out: CMI or CI80 Aspergillus fumigatus (AF980003)

SMILES | MIC [µM]
Fc1ccc(C(C(n2ccc3ccccc32)n2nnc3ccccc32)n2ccnc2)cc1 (mixture of isomers) [compound 83] | >100
CCn1ccc2cccc(C(c3cccc(Cl)c3)n3ccnc3)c21.O=[N+]([O-])O (stereo not shown) [55n] | >100
Clc1ccc(Cn2cc(CCCCn3ccnc3)c3ccccc32)cc1.O=[N+]([O-])O [61n] | >100

Same assay, conditions: summary of Tables 27 to 40

SMILES | activity against Aspergillus fumigatus (in words)
CCN1CCc2cccc(C(c3cccc(Cl)c3)n3ccnc3)c21 (racemic) [compound 48] | strong activity
CCn1c(C(c2ccc(F)cc2)n2ccnc2)c(C)c2ccccc21.O=[N+]([O-])O (stereo not shown) [31n] | most active
CCC(c1cn(Cc2ccc(Cl)cc2)c2ccccc12)n1ccnc1.O=[N+]([O-])O (stereo not shown) [64n] | strong activity
CC(c1cn(Cc2ccc(F)cc2)c2ccccc12)n1ccnc1.O=C(O)/C=C/C(=O)O (stereo not shown) [67f] | strong activity
CC(c1cn(Cc2ccc(Cl)cc2Cl)c2ccccc12)n1ccnc1.O=C(O)/C=C/C(=O)O (stereo not shown) [68f] | strong activity
CC(c1cn(Cc2ccc(F)cc2F)c2ccccc12)n1ccnc1.O=[N+]([O-])O (stereo not shown) [69n] | strong activity

Each molecule was assayed on Candida albicans (strain n° CA980001) (assay: Antifungal activity on a clinical strain of Candida albicans (MTT colorimetric microplate test)). Settings: Candida albicans; strain CA980001; 24 h at 37° C., MTT; read-out: CMI or CI80 Candida albicans (CA980001).
Format: cell-based

SMILES | MIC [µM]
Fc1ccc(Cn2ccc3cc(-c4nnn[nH]4)ccc32)cc1 [Cpsé 2, 1-(4-Fluorobenzyl)-5-(1H-tetrazol-5-yl)-1H-indole] | 64 ± 1 (≈ 18.8 µg/mL)

Same assay, conditions: strain CA980001

SMILES | CMI or CI80 Candida albicans (CA980001)
Fc1ccc(C(C(n2ccc3ccccc32)n2nnc3ccccc32)n2ccnc2)cc1 (mixture of isomers) [compound 83] | 55 ± 5 μM and 23 ± 2 μg/mL
CCn1c(C(c2ccc(F)cc2)n2ccnc2)c(C)c2ccccc21.O=[N+]([O-])O (stereo not shown) [31n] | 7 ± 0.3 μM and 2.77 ± 0.3 μg/mL
CCn1ccc2cccc(C(c3cccc(Cl)c3)n3ccnc3)c21.O=[N+]([O-])O (stereo not shown) [55n] | 0.039 µg/mL
CCC(c1cn(Cc2ccc(Cl)cc2)c2ccccc12)n1ccnc1.O=[N+]([O-])O (stereo not shown) [64n] | 36 ± 10 μM and 15 ± 4 μg/mL
CC(c1cn(Cc2ccc(F)cc2)c2ccccc12)n1ccnc1.O=C(O)/C=C/C(=O)O (stereo not shown) [67f] | 57 ± 2 μM and 25 ± 1 μg/mL
CC(c1cn(Cc2ccc(Cl)cc2Cl)c2ccccc12)n1ccnc1.O=C(O)/C=C/C(=O)O (stereo not shown) [68f] | 31 ± 7 μM and 15 ± 3 μg/mL
CC(c1cn(Cc2ccc(F)cc2F)c2ccccc12)n1ccnc1.O=[N+]([O-])O (stereo not shown) [69n] | 65 ± 6 μM and 26 ± 5 μg/mL
Cc1c(C(C)n2ccnc2)c2ccccc2n1Cc1ccc(Cl)cc1Cl.O=[N+]([O-])O (stereo not shown) [71n] | 52 ± 3 μM and 23.31 μg/mL

Same assay, conditions: strain CA980001; 24 h at 37° C., MTT

SMILES | CMI or CI80 Candida albicans (CA980001)
CCN1CCc2cccc(C(c3cccc(Cl)c3)n3ccnc3)c21 (racemic) [compound 48] | 0.06 ± 0.01 μM and 0.02 ± 0.01 μg/ml
Fc1ccc(Cn2ccc3ccc(Cn4ccnc4)cc32)cc1.O=[N+]([O-])O [19n] | 77 ± 1 μM and 28.36 ± 1 μg/ml
Fc1ccc(Cn2ccc3c(Cn4ccnc4)cccc32)cc1 [compound 17] | 54 ± 1 μM and 16.49 ± 1 μg/ml

Same assay, conditions: strain CA980001; 24 h at 37° C., MTT; listed as 4

SMILES | CMI or CI80 Candida albicans (CA980001) [µg/mL]
Fc1ccc(Cn2ccc3cc(-c4nnn[nH]4)ccc32)cc1 [Cpsé 2, 1-(4-Fluorobenzyl)-5-(1H-tetrazol-5-yl)-1H-indole] | 19.54 ± 1

Same assay, conditions: strain CA980001; 24 h at 37° C., MTT; read-out: CMI or CI80 Candida albicans (CA980001)

SMILES | MIC [µM]
CC(C)(C)c1ccc(Cn2cc(Cn3ccnc3)c3ccccc32)cc1.O=C(O)/C=C/C(=O)O [7f] | >100

Same assay, conditions: strain CA980001; read-out: CMI or CI80 Candida albicans (CA980001)

SMILES | MIC [µM]
CCn1ccc2cccc(C(c3cccc(Cl)c3)n3ccnc3)c21.O=[N+]([O-])O (stereo not shown) [55n] | 0.098
Clc1ccc(Cn2cc(CCCCn3ccnc3)c3ccccc32)cc1.O=[N+]([O-])O [61n] | >100

Same assay, conditions: summary of Tables 27 to 40

SMILES | activity of inhibition of Candida albicans (in words)
CCN1CCc2cccc(C(c3cccc(Cl)c3)n3ccnc3)c21 (racemic) [compound 48] | most active
CCn1c(C(c2ccc(F)cc2)n2ccnc2)c(C)c2ccccc21.O=[N+]([O-])O (stereo not shown) [31n] | significant activity
CCn1ccc2cccc(C(c3cccc(Cl)c3)n3ccnc3)c21.O=[N+]([O-])O (stereo not shown) [55n] | most active

The molecules below were run on promastigote stage of Leishmania mexicana (assay: Antiparasitic activity on the promastigote form of Leishmania (MTT)). Settings: not given.
Format: cell-based

SMILES | CI50 Leishmania mexicana Promastigotes [µg/mL] | activity against Leishmania mexicana (in words)
Fc1ccc(C(C(n2ccc3ccccc32)n2nnc3ccccc32)n2ccnc2)cc1 (mixture of isomers) [compound 83] | 1.85 ± 0.03 | 
CCN1CCc2cccc(C(c3cccc(Cl)c3)n3ccnc3)c21 (racemic) [compound 48] |  | strong activity
CC(C)(C)c1ccc(Cn2cc(Cn3ccnc3)c3ccccc32)cc1.O=C(O)/C=C/C(=O)O [7f] | 3.9 ± 0.09 | strong activity
CCn1c(C(c2ccc(F)cc2)n2ccnc2)c(C)c2ccccc21.O=[N+]([O-])O (stereo not shown) [31n] |  | most active
Clc1ccc(Cn2cc(CCCCn3ccnc3)c3ccccc32)cc1.O=[N+]([O-])O [61n] | 20.05 ± 0.3 | 
Fc1ccc(Cn2ccc3cc(-c4nnn[nH]4)ccc32)cc1 [Cpsé 2, 1-(4-Fluorobenzyl)-5-(1H-tetrazol-5-yl)-1H-indole] |  | strong activity
Brc1ccc(C(Cn2ccc3ccccc32)n2ccnc2)cc1 (stereo not shown) [compound 84] | 3.6 ± 0.4 (≈ 9.83 µM) | 

Same assay, conditions: Leishmania mexicana; promastigotes; 36 h at 26° C., MTT; read-out: CI50 Leishmania mexicana Promastigotes

SMILES | IC50
Fc1ccc(Cn2ccc3cc(-c4nnn[nH]4)ccc32)cc1 [Cpsé 2, 1-(4-Fluorobenzyl)-5-(1H-tetrazol-5-yl)-1H-indole] | 3 µg/mL and 10 µM

Same assay, conditions: promastigotes

SMILES | CI50 Leishmania mexicana Promastigotes [µg/mL]
CCC(c1cn(Cc2ccc(Cl)cc2)c2ccccc12)n1ccnc1.O=[N+]([O-])O (stereo not shown) [64n] | 2.97 ± 0.02
CC(c1cn(Cc2ccc(F)cc2)c2ccccc12)n1ccnc1.O=C(O)/C=C/C(=O)O (stereo not shown) [67f] | 1.57 ± 1.2
CC(c1cn(Cc2ccc(Cl)cc2Cl)c2ccccc12)n1ccnc1.O=C(O)/C=C/C(=O)O (stereo not shown) [68f] | 2.7 ± 0.05

Same assay, conditions: promastigotes; 36 h at 26° C., MTT

SMILES | CI50 Leishmania mexicana Promastigotes [µg/mL]
CCN1CCc2cccc(C(c3cccc(Cl)c3)n3ccnc3)c21 (racemic) [compound 48] | 1 ± 0.3 (≈ 2.96 µM)

Same assay, conditions: promastigotes; 36 h at 26° C., MTT; read-out: CI50 Leishmania mexicana Promastigotes

SMILES | IC50 [µM]
CCN1CCc2cccc(C(c3cccc(Cl)c3)n3ccnc3)c21 (racemic) [compound 48] | 3 ± 1

Same assay, conditions: promastigotes; read-out: CI50 Leishmania mexicana Promastigotes

SMILES | IC50 [µM]
CCn1c(C(c2ccc(F)cc2)n2ccnc2)c(C)c2ccccc21.O=[N+]([O-])O (stereo not shown) [31n] | < 0.1
CCC(c1cn(Cc2ccc(Cl)cc2)c2ccccc12)n1ccnc1.O=[N+]([O-])O (stereo not shown) [64n] | 7.2 ± 0.07
CC(c1cn(Cc2ccc(F)cc2)c2ccccc12)n1ccnc1.O=C(O)/C=C/C(=O)O (stereo not shown) [67f] | 3.6 ± 1.2
CC(c1cn(Cc2ccc(Cl)cc2Cl)c2ccccc12)n1ccnc1.O=C(O)/C=C/C(=O)O (stereo not shown) [68f] | 5.7 ± 0.13

Same assay, conditions: read-out: CI50 Leishmania mexicana Promastigotes

SMILES | IC50 [µM]
Fc1ccc(C(C(n2ccc3ccccc32)n2nnc3ccccc32)n2ccnc2)cc1 (mixture of isomers) [compound 83] | 4.4 ± 0.07
CC(C)(C)c1ccc(Cn2cc(Cn3ccnc3)c3ccccc32)cc1.O=C(O)/C=C/C(=O)O [7f] | 8.4 ± 0.5
Clc1ccc(Cn2cc(CCCCn3ccnc3)c3ccccc32)cc1.O=[N+]([O-])O [61n] | 62 ± 0.3
Brc1ccc(C(Cn2ccc3ccccc32)n2ccnc2)cc1 (stereo not shown) [compound 84] | 8.45 ± 1.02
